PubChem BioAssay AID1259407 (Chemical Carcinogenesis Research Information System (CCRIS), 2018)
Active and inactive are the calls of the source. No rule for the calls is given here.

Test system: CCRIS mutagenicity, Ames/micronucleus/aberration tests
Experiment: CCRIS mutagenicity studies

SMILES: COc1cc2c(c3oc(=O)c4c(c13)CCC4=O)[C@@H]1C=CO[C@@H]1O2
- mutagenic call (End Point: IN VITRO MICRONUCLEUS, Test System: AHH-1 CELLS, Metabolic Activation: NONE): active; positive
- mutagenic call (End Point: IN VITRO MICRONUCLEUS, Test System: MCL-5 CELLS, Metabolic Activation: NONE): active; positive
- mutagenic call (Test System: AMES SALMONELLA TYPHIMURIUM, Strain/Indicator: TA98, Metabolic Activation: EPITHELIAL CELL-MEDIATED, AROCLOR 1254, Method: PREINCUBATION): active; positive
- mutagenic call (Test System: AMES SALMONELLA TYPHIMURIUM, Strain/Indicator: TA98, Metabolic Activation: EPITHELIAL CELL-MEDIATED, NADPH, Method: PREINCUBATION): active; positive
- mutagenic call (Test System: AMES SALMONELLA TYPHIMURIUM, Strain/Indicator: TA98, Metabolic Activation: EPITHELIAL CELL-MEDIATED, Method: PREINCUBATION): active; positive
- mutagenic call (Test System: AMES SALMONELLA TYPHIMURIUM, Strain/Indicator: TA98, Metabolic Activation: HAMSTER, LIVER, S-9, Method: MICROSUSPENSION): active; positive
- mutagenic call (Test System: AMES SALMONELLA TYPHIMURIUM, Strain/Indicator: TA98, Metabolic Activation: HAMSTER, LUNG, S-9, Method: MICROSUSPENSION): inactive; negative
- mutagenic call (Test System: AMES SALMONELLA TYPHIMURIUM, Strain/Indicator: TA98, Metabolic Activation: HAMSTER, TRACHEA, S-9, Method: MICROSUSPENSION): active; positive
- mutagenic call (Test System: AMES SALMONELLA TYPHIMURIUM, Strain/Indicator: TA98, Metabolic Activation: HUMAN LIVER, S-9, Method: STANDARD PLATE): active; positive
- mutagenic call (Test System: AMES SALMONELLA TYPHIMURIUM, Strain/Indicator: TA98, Metabolic Activation: HUMAN, LIVER, S-9, Method: STANDARD PLATE): active; positive
- mutagenic call (Test System: AMES SALMONELLA TYPHIMURIUM, Strain/Indicator: TA98, Metabolic Activation: KUPFFER CELL-MEDIATED, AROCLOR 1254, Method: PREINCUBATION): active; positive
- mutagenic call (Test System: AMES SALMONELLA TYPHIMURIUM, Strain/Indicator: TA98, Metabolic Activation: KUPFFER CELL-MEDIATED, NADPH, Method: PREINCUBATION): active; positive
- mutagenic call (Test System: AMES SALMONELLA TYPHIMURIUM, Strain/Indicator: TA98, Metabolic Activation: KUPFFER CELL-MEDIATED, Method: PREINCUBATION): active; positive
- mutagenic call (Test System: AMES SALMONELLA TYPHIMURIUM, Strain/Indicator: TA98, Metabolic Activation: NONE, Method: MICROSUSPENSION): active; positive
- mutagenic call (Test System: AMES SALMONELLA TYPHIMURIUM, Strain/Indicator: TA98, Metabolic Activation: NONE, Method: PREINCUBATION): inactive; negative
- mutagenic call (Test System: AMES SALMONELLA TYPHIMURIUM, Strain/Indicator: TA98, Metabolic Activation: NONE, Method: STANDARD PLATE): active; positive
- mutagenic call (Test System: AMES SALMONELLA TYPHIMURIUM, Strain/Indicator: TA98, Metabolic Activation: PARENCHYMAL CELL-MEDIATED, AROCLOR 1254, Method: PREINCUBATION): active; positive
- mutagenic call (Test System: AMES SALMONELLA TYPHIMURIUM, Strain/Indicator: TA98, Metabolic Activation: PARENCHYMAL CELL-MEDIATED, NADPH, Method: PREINCUBATION): active; positive
- mutagenic call (Test System: AMES SALMONELLA TYPHIMURIUM, Strain/Indicator: TA98, Metabolic Activation: PARENCHYMAL CELL-MEDIATED, Method: PREINCUBATION): inactive; negative
- mutagenic call (Test System: AMES SALMONELLA TYPHIMURIUM, Strain/Indicator: TA98, Metabolic Activation: RABBIT, LIVER, S-9, Method: MICROSUSPENSION): active; positive
- mutagenic call (Test System: AMES SALMONELLA TYPHIMURIUM, Strain/Indicator: TA98, Metabolic Activation: RABBIT, LUNG, S-9, Method: MICROSUSPENSION): active; positive
- mutagenic call (Test System: AMES SALMONELLA TYPHIMURIUM, Strain/Indicator: TA98, Metabolic Activation: RABBIT, TRACHEA, S-9, Method: MICROSUSPENSION): active; positive
- mutagenic call (Test System: AMES SALMONELLA TYPHIMURIUM, Strain/Indicator: TA98, Metabolic Activation: RAT LIVER S-9, DELOR 103, Method: STANDARD PLATE): active; positive
- mutagenic call (Test System: AMES SALMONELLA TYPHIMURIUM, Strain/Indicator: TA98, Metabolic Activation: RAT LIVER S-9, DELOREM 103, Method: STANDARD PLATE): active; positive
- mutagenic call (Test System: AMES SALMONELLA TYPHIMURIUM, Strain/Indicator: TA98, Metabolic Activation: RAT, LIVER, MICROSOMES, PHENOBARBITAL, Method: STANDARD PLATE): active; positive
- mutagenic call (Test System: AMES SALMONELLA TYPHIMURIUM, Strain/Indicator: TA98, Metabolic Activation: RAT, LIVER, S-9, ACRYLAMIDE, Method: STANDARD PLATE): active; positive
- mutagenic call (Test System: AMES SALMONELLA TYPHIMURIUM, Strain/Indicator: TA98, Metabolic Activation: RAT, LIVER, S-9, AROCLOR 1254, Method: PREINCUBATION): active; positive
- mutagenic call (Test System: AMES SALMONELLA TYPHIMURIUM, Strain/Indicator: TA98, Metabolic Activation: RAT, LIVER, S-9, AROCLOR 1254, Method: STANDARD PLATE): active; positive
- mutagenic call (Test System: AMES SALMONELLA TYPHIMURIUM, Strain/Indicator: TA98, Metabolic Activation: RAT, LIVER, S-9, PHENOBARBITAL, Method: STANDARD PLATE): active; positive
- mutagenic call (Test System: AMES SALMONELLA TYPHIMURIUM, Strain/Indicator: TA98, Metabolic Activation: RAT, LIVER, S-9, Method: MICROSUSPENSION): active; positive
- mutagenic call (Test System: AMES SALMONELLA TYPHIMURIUM, Strain/Indicator: TA98, Metabolic Activation: RAT, LUNG, S-9, Method: MICROSUSPENSION): inactive; negative
- mutagenic call (Test System: AMES SALMONELLA TYPHIMURIUM, Strain/Indicator: TA98, Metabolic Activation: RAT, TRACHEA, S-9, Method: MICROSUSPENSION): inactive; negative
- mutagenic call (Test System: AMES SALMONELLA TYPHIMURIUM, Strain/Indicator: TA100, Metabolic Activation: HUMAN LIVER, S-9, Method: STANDARD PLATE): active; positive
- mutagenic call (Test System: AMES SALMONELLA TYPHIMURIUM, Strain/Indicator: TA100, Metabolic Activation: HUMAN, LIVER, S-9, Method: STANDARD PLATE): active; positive
- mutagenic call (Test System: AMES SALMONELLA TYPHIMURIUM, Strain/Indicator: TA100, Metabolic Activation: HUMAN, PLACENTAL MICROSOMES, Method: PREINCUBATION): active; positive
